Test results from patent US20230278972A1, “SUBSTITUTED HALOALKYL SULFONANILIDE HERBICIDES” (FMC Corporation, priority 2020, published 2023).

What was measured:
Type in all cases: in vivo
[1] = test system: barnyardgrass (Echinochloa crus-galli); experiment: Test B1 flooded paddy test, barnyardgrass; conditions: 250 g ai/ha, Flood, applied to paddy water, 2-leaf stage, visually evaluated after 10 to 14 days
Description: (§1) A dash (-) response means no test result.

[2] = test system: blackgrass (Alopecurus myosuroides); experiment: Test A1 postemergence, blackgrass; conditions: Postemergence, 0 to 100 scale (0 no effect, 100 complete control)
Description: (§2) Seeds of plant species selected from, blackgrass (Alopecurus myosuroides), corn (Zea mays), Foxtail, Giant (giant foxtail, Setaria faberi), goosegrass (Eleusine indica), kochia (Bassia scoparia), Oat, Wild (wild oat, Avena fatua), Pigweed, Palmer (palmer amaranth, palmer pigweed, Amaranthus palmeri), ragweed (common ragweed, Ambrosia artemisiifolia), Ryegrass, Italian (Italian ryegrass, Lolium multiflorum), soybean (Glycine max), and wheat (Triticum aestivum) were planted into a blend of loam soil and sand and treated preemergence with a directed soil spray using test chemicals formulated in a non-phytotoxic solvent mixture which included a surfactant. At the same time, plants selected from these crop and weed species and also galium (catchweed bedstraw, Galium aparine) and horseweed (Erigeron canadensis) were planted in pots containing the same blend of loam soil and sand and treated with postemergence applications of test chemicals formulated in the same manner. Plants ranged in height from 2 to 10 cm and were in the one- to two-leaf stage for the postemergence treatment. […] A dash (-) response means no test result.

[3] = test system: corn (Zea mays); experiment: Test A1 preemergence, corn
Description: as §2

[4] = test system: corn (Zea mays); experiment: Test A1 postemergence, corn; conditions: Postemergence
Description: as §2

[5] = test system: Oat, Wild (wild oat, Avena fatua); experiment: Test A1 postemergence, Oat, Wild; conditions: Postemergence
Description: as §2

[6] = test system: Pigweed, Palmer (palmer amaranth, palmer pigweed, Amaranthus palmeri); experiment: Test A1 preemergence, Pigweed, Palmer
Description: as §2

[7] = test system: goosegrass (Eleusine indica); experiment: Test A1 preemergence, goosegrass
Description: as §2

[8] = test system: ragweed (common ragweed, Ambrosia artemisiifolia); experiment: Test A1 postemergence, ragweed; conditions: Postemergence
Description: as §2

[9] = test system: ragweed (common ragweed, Ambrosia artemisiifolia); experiment: Test A1 preemergence, ragweed
Description: as §2

[10] = test system: wheat (Triticum aestivum); experiment: Test A1 preemergence, wheat
Description: as §2

[11] = test system: blackgrass (Alopecurus myosuroides); experiment: Test A1 preemergence, blackgrass
Description: as §2

[12] = test system: kochia (Bassia scoparia); experiment: Test A1 postemergence, kochia; conditions: Postemergence
Description: as §2

[13] = test system: Ryegrass, Italian (Italian ryegrass, Lolium multiflorum); experiment: Test A1 preemergence, Ryegrass, Italian
Description: as §2

[14] = test system: horseweed (Erigeron canadensis); experiment: Test A1 postemergence, horseweed; conditions: Postemergence
Description: as §2

[15] = test system: galium (catchweed bedstraw, Galium aparine); experiment: Test A1 postemergence, galium; conditions: Postemergence
Description: as §2

[16] = test system: Foxtail, Giant (giant foxtail, Setaria faberi); experiment: Test A1 preemergence, Foxtail, Giant
Description: as §2

[17] = test system: rice (Oryza sativa); experiment: Test B1 flooded paddy test, rice; conditions: 250 g ai/ha, Flood, applied to paddy water, 2-leaf stage, visually evaluated after 10 to 14 days
Description: as §1

[18] = test system: soybean (Glycine max); experiment: Test A1 preemergence, soybean
Description: as §2

[19] = test system: wheat (Triticum aestivum); experiment: Test A1 postemergence, wheat; conditions: Postemergence
Description: as §2

[20] = test system: Oat, Wild (wild oat, Avena fatua); experiment: Test A1 preemergence, Oat, Wild
Description: as §2

[21] = test system: Foxtail, Giant (giant foxtail, Setaria faberi); experiment: Test A1 postemergence, Foxtail, Giant; conditions: Postemergence
Description: as §2

[22] = test system: goosegrass (Eleusine indica); experiment: Test A1 postemergence, goosegrass; conditions: Postemergence
Description: as §2

[23] = test system: kochia (Bassia scoparia); experiment: Test A1 preemergence, kochia
Description: as §2

[24] = test system: ducksalad (Heteranthera limosa); experiment: Test B1 flooded paddy test, ducksalad; conditions: 250 g ai/ha, Flood, applied to paddy water, 2-leaf stage, visually evaluated after 10 to 14 days
Description: as §1

[25] = test system: Pigweed, Palmer (palmer amaranth, palmer pigweed, Amaranthus palmeri); experiment: Test A1 postemergence, Pigweed, Palmer; conditions: Postemergence
Description: as §2

[26] = test system: Ryegrass, Italian (Italian ryegrass, Lolium multiflorum); experiment: Test A1 postemergence, Ryegrass, Italian; conditions: Postemergence
Description: as §2

[27] = test system: soybean (Glycine max); experiment: Test A1 postemergence, soybean; conditions: Postemergence
Description: as §2

[28] = 31 g ai/ha, 0 to 100 scale (0 no effect, 100 complete control)
[29] = 125 g ai/ha, 0 to 100 scale, 0 no effect, 100 complete control
[30] = 31 g ai/ha, 0 to 100 scale (0 no effect, 100 complete control), 10 days

Cc1c(NS(=O)(=O)C(F)(F)F)cc(C(=O)N2CCOCC2)c(C)c1Cl [Compound 290] was tested, and the “Plant response rating, Barnyardgrass (0 to 100 scale, 0 is no effect, 100 is complete control)” value [1] was 0, the “Plant response rating, Blackgrass” value ([2]; 31 g ai/ha, 10 days) was 0 and the “Plant response rating, Blackgrass” value ([2]; 125 g ai/ha) was 0. For the same compound, the “Plant response rating, Corn” value [3, 28] was 0, the “Plant response rating, Corn” value [3, 29] was 20 and the “Plant response rating, Corn” value [4, 30] was 0. The “Plant response rating, Corn” value ([4]; 125 g ai/ha, 0 to 100 scale) was 20, the “Plant response rating, Oat, Wild” value [5, 30] was 0 and the “Plant response rating, Oat, Wild” value ([5]; 125 g ai/ha, 0 to 100 scale) was 10. The “Plant response rating, Pigweed, Palmer” value [6, 28] was 0, the “Plant response rating, Pigweed, Palmer” value [6, 29] was 50 and the “Plant response rating, Goosegrass” value [7, 28] was 70. For the same compound, the “Plant response rating, Goosegrass” value [7, 29] was 90, the “Plant response rating, Ragweed” value [8, 30] was 60 and the “Plant response rating, Ragweed” value ([8]; 125 g ai/ha, 0 to 100 scale) was 70. For the same compound, the “Plant response rating, Ragweed” value [9, 28] was 20, the “Plant response rating, Ragweed” value [9, 29] was 60 and the “Plant response rating, Wheat” value [10, 28] was 0. For the same compound, the “Plant response rating, Wheat” value [10, 29] was 40, the “Plant response rating, Blackgrass” value [11, 28] was 20 and the “Plant response rating, Blackgrass” value [11, 29] was 70. For the same compound, the “Plant response rating, Kochia” value [12, 30] was 20, the “Plant response rating, Kochia” value ([12]; 125 g ai/ha, 0 to 100 scale) was 20 and the “Plant response rating, Ryegrass, Italian” value [13, 28] was 30. The “Plant response rating, Ryegrass, Italian” value [13, 29] was 60, the “Plant response rating, Horseweed” value [14, 30] was 70 and the “Plant response rating, Horseweed” value ([14]; 125 g ai/ha, 0 to 100 scale) was 90. For the same compound, the “Plant response rating, Galium” value [15, 30] was 80, the “Plant response rating, Galium” value ([15]; 125 g ai/ha, 0 to 100 scale) was 90 and the “Plant response rating, Foxtail, Giant” value [16, 28] was 0. For the same compound, the “Plant response rating, Foxtail, Giant” value [16, 29] was 90, the “Plant response rating, Rice (0 to 100 scale, 0 is no effect, 100 is complete control)” value [17] was 0 and the “Plant response rating, Soybean” value [18, 28] was 0. The “Plant response rating, Soybean” value [18, 29] was 0, the “Plant response rating, Wheat” value [19, 30] was 0 and the “Plant response rating, Wheat” value ([19]; 125 g ai/ha, 0 to 100 scale) was 60. The “Plant response rating, Oat, Wild” value [20, 28] was 0, the “Plant response rating, Oat, Wild” value [20, 29] was 20 and the “Plant response rating, Foxtail, Giant” value [21, 30] was 0. For the same compound, the “Plant response rating, Foxtail, Giant” value ([21]; 125 g ai/ha, 0 to 100 scale) was 70, the “Plant response rating, Goosegrass” value [22, 30] was 30 and the “Plant response rating, Goosegrass” value ([22]; 125 g ai/ha, 0 to 100 scale) was 70. The “Plant response rating, Kochia” value [23, 28] was 20, the “Plant response rating, Kochia” value [23, 29] was 30 and the “Plant response rating, Ducksalad (0 to 100 scale, 0 is no effect, 100 is complete control)” value [24] was 65. The “Plant response rating, Pigweed, Palmer” value [25, 30] was 0, the “Plant response rating, Pigweed, Palmer” value ([25]; 125 g ai/ha, 0 to 100 scale) was 20 and the “Plant response rating, Ryegrass, Italian” value [26, 30] was 0. For the same compound, the “Plant response rating, Ryegrass, Italian” value ([26]; 125 g ai/ha, 0 to 100 scale) was 50, the “Plant response rating, Soybean” value [27, 30] was 0 and the “Plant response rating, Soybean” value ([27]; 125 g ai/ha, 0 to 100 scale) was 20.
